Measured values as given in patent US6583309B1 (University of Medicine and Dentistry of New Jersey, priority 1999, dated 2003).

Biological target: TAR RNA
Experiment: In vitro binding of resin-bound compounds to TAR RNA (OD260 of unbound RNA)
Parameters: species or system HIV
Conditions: in vitro assay; compounds of formula I on TentaGel beads incubated with TAR RNA overnight at 4° C. in TK buffer; read-out: Kd (nM), binding constants
Description: Binding of compounds of formula I and V to TAR RNA was measured by evaluating their inhibition of TAR-TAT complex formation in the presence of increasing levels of the compound to be tested. The compounds of formula I were tested in an in vitro assay; the compounds of formula V were tested in an in vivo assay.
The TAR RNA used corresponds to the minimal sequence required for TAT responsiveness in vivo. This 29-residue oligonucleotide has the sequence: 5′-[…]-3′ (SEQ ID NO.: 1). TAR RNA was prepared by in vitro transcription. A “top strand” single-stranded DNA oligomer having the sequence 5′-TAATACGACTCACTATAG-3′ (SEQ ID NO.: 2) was annealed to a “bottom strand” single-stranded DNA template having the following sequence: 3′-[…]-5′ (SEQ ID NO.: 3), thereby generating a double-stranded region corresponding to a promoter sequence recognized by T7 RNA polymerase. Transcription was carried out in transcription buffer (40 mM Tris-HCl, pH 8.1, 1 mM spermidine, 0.01% Triton®X-100, 5 mM dithiothreitol, 4 mM each of ATP, GTP, CTP, and UTP at 37° C. for 4 to 5 hours. Reactions were performed in a volume of 0.02 ml containing 8 pmole of template (top strand annealed to bottom strand) and 40 to 60 units of T7 RNA polymerase. Transcription was terminated by adding an equal volume of loading buffer (9M urea, 1 mmol EDTA, 0.1M bromophenol blue in 1XTBE buffer; TBE is 45 mmol trisborate at pH 8). Product RNA was purified by electrophoresis through a denaturing 20% polyacrylamide gel containing 8M urea. RNA was extracted from the gel, precipitated, dissolved in dithylpyrocarbonate-treated water, and stored at −20° C. until used.
In vitro assay conditions: Compounds AA-DU were synthesized on TentaGel S—NH2 (4.6 mmole). All Fmoc-amino acids were purchased from Bachem (Torrance, Calif.). 1-hydroxybenzotriazole (HOBT) and diisopropylcarbodiimide (DIPCDI) were obtained from Aldrich Chemical Co., Milwalkee, Wis. Piperidine and trifluoroacetic acid were purchased from Applied Biosystems Division, Perkin-Elmer. Compounds AA-DU were synthesized manually according to standard solid-phase peptide synthesis protocols. Coupling efficiencies of residues at each step were monitored by Kaiser test. Deprotection of trimer peptides was carried out in 10% water in trifluoroacetic acid (1 mL) for 16 hours at room temperature. After filtration of solvents, the resin was washed with water (1 mL×4), DMF (1 mL×4), dichloromethane (1 mL×4), and dried under reduced pressure. The compounds attached to the resin (10 beads) were placed in an Eppendorf tube and washed with TK buffer ([…]). The beads were suspended in TK buffer ([…]) and incubated with TAR RNA ([…]) overnight at 4° C. The suspension was centrifuged and the supernatant containing unbound RNA was transferred to a cuvette for OD260 measurements. The UV absorbance was measured by a Shimadzu UV-1601 spectrometer. Equilibrium concentrations of RNA were determined from these measurements. Given that the initial concentrations of ligand and RNA are known, and assuming simple bimolecular receptor/substrate binding, dissociation constant (KD) was calculated from straightforward equations.

SMILES | Kd
NCCCC[C@H](COC(N)=O)NC(=O)OC[C@H](CCCCN)NC(=O)[C@H](N)CCCCN (stereo in doubt) [Compound AM, Carbamic acid 6-amino-2-[6-amino-2-(2,6-diamino-hexanoylamino)-hexyloxycarbonylamino]-hexyl ester] | 183 nM
NCCCC[C@H](N)COC(=O)N(CCCCN)CC(=O)N[C@H](CCCCN)COC(N)=O (stereo in doubt) [Compound AS, Carbamic acid 6-amino-2-{2-[(4-amino-butyl)-(2,6-diamino-hexyloxycarbonyl)-amino]-acetylamino}-hexyl ester] | 147 nM
NCCCCCN(CC(=O)N[C@H](CCCCN)COC(N)=O)C(=O)OC[C@H](N)CCCCN (stereo in doubt) [Compound BC, Carbamic acid 6-amino-2-{2-[(5-amino-pentyl)-(2,6-diamino-hexyloxycarbonyl)-amino]-acetylamino}-hexyl ester] | 183 nM
NCCCC[C@H](N)COC(=O)N[C@@H](CCCCN)C(=O)N[C@H](CCCCN)COC(N)=O (stereo in doubt) [Compound BT, Carbamic acid 6-amino-2-[6-amino-2-(2,6-diamino-hexyloxycarbonylamino)-hexanoylamino]-hexyl ester] | 202 nM
NCCCC[C@H](COC(N)=O)NC(=O)[C@H](CCCCN)NC(=O)[C@@H](N)CCCCN (stereo in doubt) [Compound BV, Carbamic acid 6-amino-2-[6-amino-2-(2,6-diamino-hexanoylamino)-hexanoylamino]-hexyl ester] | 403 nM
NCCCC[C@@H](COC(N)=O)NC(=O)OC[C@@H](CCCCN)NC(=O)[C@H](N)CCCCN (stereo in doubt) [Compound CD, Carbamic acid 6-amino-2-[6-amino-2-(2,6-diamino-hexanoylamino)-hexyloxycarbonylamino]-hexyl ester] | 567 nM
NCCCC[C@H](N)COC(=O)N[C@@H](CCCCN)COC(=O)N[C@@H](CCCCN)COC(N)=O (stereo in doubt) [Compound CJ, Carbamic acid 6-amino-2-[6-amino-2-(2,6-diamino-hexyloxycarbonylamino)-hexyloxycarbonylamino]-hexyl ester] | 1260 nM
NCCCC[C@@H](COC(N)=O)NC(=O)OC[C@H](CCCCN)NC(=O)[C@@H](N)CCCCN (stereo in doubt) [Compound CL, Carbamic acid 6-amino-2-[6-amino-2-(2,6-diamino-hexanoylamino)-hexyloxycarbonylamino]-hexyl ester] | 130 nM
NCCCC[C@H](N)COC(=O)N[C@H](CCCCN)COC(=O)N[C@H](CCCCN)COC(N)=O [Compound AA, Carbamic acid 6-amino-2-[6-amino-2-(2,6-diamino-hexyloxycarbonylamino)-hexyloxycarbonylamino]-hexyl ester] | 639 nM
NCCCC[C@@H](N)COC(=O)N[C@H](CCCCN)COC(=O)N[C@H](CCCCN)COC(N)=O [Compound AB, Carbamic acid 6-amino-2-[6-amino-2-(2,6-diamino-hexyloxycarbonylamino)-hexyloxycarbonylamino]-hexyl ester] | 523 nM
NCCCC[C@H](COC(N)=O)NC(=O)OC[C@@H](CCCCN)NC(=O)[C@@H](N)CCCCN [Compound AC, Carbamic acid 6-amino-2-[6-amino-2-(2,6-diamino-hexanoylamino)-hexyloxycarbonylamino]-hexyl ester] | 215 nM
NCCCC[C@H](COC(N)=O)NC(=O)OC[C@@H](CCCCN)NC(=O)[C@H](N)CCCCN [Compound AD, Carbamic acid 6-amino-2-[6-amino-2-(2,6-diamino-hexanoylamino)-hexyloxycarbonylamino]-hexyl ester] | 2080 nM
NCCCCCNCC(=O)N[C@H](CCCCN)COC(=O)N[C@H](CCCCN)COC(N)=O [Compound AE, Carbamic acid 6-amino-2-{6-amino-2-[2-(5-amino-pentylamino)-acetylamino]-hexyloxycarbonylamino}-hexyl ester] | 1110 nM
NCCCCCCCNCC(=O)N[C@H](CCCCN)COC(=O)N[C@H](CCCCN)COC(N)=O [Compound AF, Carbamic acid 6-amino-2-{6-amino-2-[2-(7-amino-heptylamino)-acetylamino]-hexyloxycarbonylamino}-hexyl ester] | 491 nM
NCCCCNCC(=O)N[C@H](CCCCN)COC(=O)N[C@H](CCCCN)COC(N)=O [Compound AG, Carbamic acid 6-amino-2-{6-amino-2-[2-(4-amino-butylamino)-acetylamino]-hexyloxycarbonylamino}-hexyl ester] | 403 nM
N=C(N)NCCC[C@H](N)COC(=O)N[C@H](CCCCN)COC(=O)N[C@H](CCCCN)COC(N)=O [Compound AH, Carbamic acid 6-amino-2-[6-amino-2-(2-amino-5-guanidino-pentyloxycarbonylamino)-hexyloxycarbonylamino]-hexyl ester] | 460 nM
NCCCC[C@H](COC(N)=O)NC(=O)OC[C@@H](CCCCN)NC(=O)OC[C@H](N)CCC(N)=O [Compound AI, Carbamic acid 6-amino-2-[6-amino-2-(2-amino-4-carbamoyl-butoxycarbonylamino)-hexyloxycarbonylamino]-hexyl ester] | 603 nM
NCCCC[C@H](N)COC(=O)N[C@@H](CCCCN)COC(=O)N[C@H](CCCCN)COC(N)=O [Compound AJ, Carbamic acid 6-amino-2-[6-amino-2-(2,6-diamino-hexyloxycarbonylamino)-hexyloxycarbonylamino]-hexyl ester] | 4310 nM
NCCCC[C@@H](N)COC(=O)N[C@@H](CCCCN)COC(=O)N[C@H](CCCCN)COC(N)=O [Compound AK, Carbamic acid 6-amino-2-[6-amino-2-(2,6-diamino-hexyloxycarbonylamino)-hexyloxycarbonylamino]-hexyl ester] | 1720 nM
NCCCC[C@H](COC(N)=O)NC(=O)OC[C@H](CCCCN)NC(=O)[C@@H](N)CCCCN [Compound AL, Carbamic acid 6-amino-2-[6-amino-2-(2,6-diamino-hexanoylamino)-hexyloxycarbonylamino]-hexyl ester] | 2720 nM
NCCCCCNCC(=O)N[C@@H](CCCCN)COC(=O)N[C@H](CCCCN)COC(N)=O [Compound AN, Carbamic acid 6-amino-2-{6-amino-2-[2-(5-amino-pentylamino)-acetylamino]-hexyloxycarbonylamino}-hexyl ester] | 183 nM
NCCCCCCCNCC(=O)N[C@@H](CCCCN)COC(=O)N[C@H](CCCCN)COC(N)=O [Compound AO, Carbamic acid 6-amino-2-{6-amino-2-[2-(7-amino-heptylamino)-acetylamino]-hexyloxycarbonylamino}-hexyl ester] | 120 nM
NCCCCNCC(=O)N[C@@H](CCCCN)COC(=O)N[C@H](CCCCN)COC(N)=O [Compound AP, Carbamic acid 6-amino-2-{6-amino-2-[2-(4-amino-butylamino)-acetylamino]-hexyloxycarbonylamino}-hexyl ester] | 1490 nM
N=C(N)NCCC[C@H](N)COC(=O)N[C@@H](CCCCN)COC(=O)N[C@H](CCCCN)COC(N)=O [Compound AQ, Carbamic acid 6-amino-2-[6-amino-2-(2-amino-5-guanidino-pentyloxycarbonylamino)-hexyloxycarbonylamino]-hexyl ester] | 2080 nM
NCCCC[C@H](COC(N)=O)NC(=O)OC[C@H](CCCCN)NC(=O)OC[C@H](N)CCC(N)=O [Compound AR, Carbamic acid 6-amino-2-[6-amino-2-(2-amino-4-carbamoyl-butoxycarbonylamino)-hexyloxycarbonylamino]-hexyl ester] | 376 nM
NCCCC[C@@H](N)COC(=O)N(CCCCN)CC(=O)N[C@H](CCCCN)COC(N)=O [Compound AT, Carbamic acid 6-amino-2-{2-[(4-amino-butyl)-(2,6-diamino-hexyloxycarbonyl)-amino]-acetylamino}-hexyl ester] | 165 nM
